Data on three compounds can be found in paper PMC9036659, “Boron-containing capsaicinoids” (RSC Advances, 2021).

Data set [1] relates to Staphylococcus warneri (ATCC 17917). Description: Antimicrobial assay, S. warneri (OD600). Type of data set: cell-based. The procedure:
(§1) The microorganisms (methicillin-resistant S. aureus MRSA 310, vancomycin-resistant E. faecium VRE 379, S. warneri (ATCC 17917), P. vulgaris (ATCC 12454), P. aeruginosa (ATCC 14210), and C. albicans (ATCC 14035)) were grown overnight on agar media. The following day the cultures were transferred into 0.9% saline water into a sterile glass tube. Using the McFarland reader, the turbidity was determined and further diluted into their respective media. The pure compounds were tested at seven different concentrations ranging from 2 to 128 μg mL^−1 in triplicate. Samples were plated into 96 well plates (10 μL in 20% DMSO) and then diluted pathogen (90 μL) was pipetted into the pre-prepared sample plates yielding 5 × 10^5 cfu mL^−1 with a final volume of 100 μL. Antibiotics that are active against specific pathogens were used as positive controls. The plates were incubated into a 37 °C incubator for 22 h. Growth of S. warneri. P. vulgaris, P. aeruginosa and C. albicans were measured by reading optical density (OD600), or in the case of slow growing microorganisms (MRSA and VRE), PrestoBlue was used to assess metabolic activity by measuring fluorescence (535–560)/(590–615) (excitation/emission) using a Thermo Scientific Varioskan Flash plate reader at time zero and then again after incubation of the plates for 22 h at 37 °C. After subtracting the time zero OD600 from the final reading, the percentages of microorganism survival relative to vehicle control wells were calculated. […]
(§2) Antimicrobial Assay Data Growth of S. warneri. P. vulgaris, P. aeruginosa and C. albicans were measured by reading optical density (OD600), or in the case of slow growing microorganisms (MRSA and VRE), PrestoBlue was used to assess metabolic activity by measuring fluorescence (535-560)⁄(590-615) (excitation/emission) using a Thermo Scientific Varioskan Flash plate reader at time zero and then again after incubation of the plates for 22 h at 37 °C. After subtracting the time zero OD600 from the final reading, the percentages of microorganism survival relative to vehicle control wells were calculated. […]

The subject of data set [2] is Proteus vulgaris (ATCC 12454). The data set can be described thus: Antimicrobial assay, P. vulgaris (OD600). The class given is cell-based. The procedure: as §1, §2
Data set [3] deals with human breast adenocarcinoma cells (MCF7 ATCC HTB-22). The data set can be described thus: Cytotoxicity assay (Alamar blue), MCF7. The class given is cell-based. The procedure: (§3) The cells (human foreskin BJ fibroblast cells (ATCC CRL-2522), green monkey kidney cells Vero (ATCC CCL-81), human breast adenocarcinoma cells (ATCC HTB-26 MDA-MB 231), human breast adenocarcinoma cells (MCF7 ATCC HTB-22), and human colorectal carcinoma cells (HCT116 ATCC CCL-247)) were grown to 80% confluency, the cells were counted, diluted, and plated into treated 96-well cell culture plates. The BJ fibroblast and Vero cells were plated at a cell density of 10 000 cells per well and the HTB26, HCT116 and MCF7 cells were plated at cell density of 5000 cells per well in 90 μL of respective growth medium (without the addition of antibiotics) and incubated for 24 h to allow cells to adhere to the plates before treatment. Pure compounds were tested in triplicate in serial dilutions of seven concentrations ranging from 2 to 128 μg mL^−1 per well (final well volume of 100 μL, 1% DMSO per well). Each of the cell lines were incubated at 37 °C in a humidified atmosphere of 5% CO2; the BJ fibroblast and Vero cells for 24 h and the HTB-26, HCT116 and MCF7 cells for 72 h. Each plate contained four uninoculated positive controls, four untreated negative controls, and one column containing a concentration range for doxorubicin. Alamar blue was added, 24 h after the treatment, and fluorescence was monitored using a Cytation Gen 5 plate reader using 560 nm Ex/590 Em both at time zero and 4 h after Alamar blue addition. The inferred percentage of cell viability relative to vehicle control wells were calculated after subtracting the time zero emission 590 nm measurement from the final reading and the IC50 was determined. […]
(§4) Cytotoxicity Assay Data Alamar blue was added, 24 h after the treatment, and fluorescence was monitored using a Cytation Gen 5 plate reader using 560 nm Ex/590 Em both at time zero and 4 h after Alamar blue addition. The inferred percentage of cell viability relative to vehicle control wells were calculated after subtracting the time zero emission 590 nm measurement from the final reading and the IC50 was determined.
(In general: Resazurin is reduced to fluorescent resorufin, in cell work by metabolically active cells.)

The subject of data set [4] is Candida albicans (ATCC 14035). Description: Antimicrobial assay, C. albicans (OD600). The class given is cell-based. As for the experimental part: as §1, §2
Data set [5] relates to human breast adenocarcinoma cells (ATCC HTB-26 MDA-MB 231). Description: Cytotoxicity assay (Alamar blue), HTB-26. Type of data set: cell-based. The following applies: for IC50: Homo sapiens, HTB26, 72 h incubation, average ± SD, Inactive = inhibition above 300 μM, read-out: IC50 HTB (cancer cell line). As for the experimental part:
as §3, §4

In data set [6] the test system is Pseudomonas aeruginosa (ATCC 14210). The data set can be described thus: Antimicrobial assay, P. aeruginosa (OD600). Type of data set: cell-based. The procedure:
as §1, §2

Data set [7] deals with vancomycin-resistant Enterococcus faecium VRE 379. Description: Antimicrobial assay, VRE (PrestoBlue fluorescence). The class given is cell-based. As for the experimental part: as §1, §2
In data set [8] the test system is methicillin-resistant Staphylococcus aureus MRSA 310. The data set can be described thus: Antimicrobial assay, MRSA (PrestoBlue fluorescence). Type of data set: cell-based. As for the experimental part: as §1, §2
The subject of data set [9] is human colorectal carcinoma cells (HCT116 ATCC CCL-247). The data set can be described thus: Cytotoxicity assay (Alamar blue), HCT116. The class given is cell-based. The following applies: for IC50: Homo sapiens, HCT-116, 72 h incubation, average ± SD, Inactive = inhibition above 300 μM, read-out: IC50 HCT (cancer cell line). The procedure: as §3, §4
In data set [10] the test system is green monkey kidney cells Vero (ATCC CCL-81). The data set can be described thus: Cytotoxicity assay (Alamar blue), Vero. The class given is cell-based. The procedure: as §3, §4
The subject of data set [11] is human foreskin BJ fibroblast cells (ATCC CRL-2522). Description: Cytotoxicity assay (Alamar blue), BJ. The class given is cell-based. As for the experimental part:
as §3, §4

Setting [12] is: 24 h incubation, average ± SD, Inactive = inhibition above 300 μM.

For orientation: IC50 means the concentration at which inhibition is half-maximal. A word on the melting point: it is the temperature of the solid-liquid transition. The compound `CCCCCCCCCC(=O)N(Cc1ccc(OC)c(OC)c1)c1ccc(B2OC(C)(C)C(C)(C)O2)cc1` [Compound 24, N-(3,4-dimethoxyphenylmethyl)-N-[4-(4,4,5,5-tetramethyl-1,3,2-dioxaborolan-2-yl)phenyl]-decanamide] yielded a melting point of 58.1 to 59.8 °C. The “antimicrobial activity against S. warneri (in words)” value in data set [1] is “inactive”. The “antimicrobial activity against P. vulgaris (in words)” value in data set [2] is “inactive”. For the same compound, the “cytotoxic activity against MCF7 (in words)” value in [3] is on record as “unselective cytotoxic effects”. For the same compound, the IC50 in [3] (Homo sapiens, MCF7, 72 h incubation, average ± SD, Inactive = inhibition above 300 μM, read-out: IC50 MCF7 (cancer cell line)) was determined as 24.1 ± 3.8 µM. Besides, the “antimicrobial activity against C. albicans (in words)” value in data set [4] is “inactive”. For the same compound, in data set [5], the “cytotoxic activity against HTB-26 MDA-MB 231 (in words)” value is given as “unselective cytotoxic effects” and the concentration for half-maximal inhibition (IC50) was 25.2 ± 1.3 µM. The “antimicrobial activity against P. aeruginosa (in words)” value in data set [6] was “inactive”. Besides, the “antimicrobial activity against VRE (in words)” value in [7] was “inactive”. Also, the “antimicrobial activity against MRSA (in words)” value in [8] is “inactive”. Moreover, in data set [9], the “cytotoxic activity against HCT116 (in words)” value is given as “unselective cytotoxic effects” and the IC50 amounted to 33.8 ± 2.1 µM. In addition, the “cytotoxic activity against Vero (in words)” value in data set [10] is recorded as “unselective cytotoxic effects”. The IC50 in data set [10] (Chlorocebus sabaeus, Vero, 24 h incubation, average ± SD, Inactive = inhibition above 300 μM, read-out: IC50 Vero (normal cell line)) was 26.9 ± 4.4 µM. In addition, the “cytotoxic activity against BJ (in words)” value in [11] is “unselective cytotoxic effects”. Moreover, the IC50 in data set [11] (Homo sapiens, Fibroblast, 24 h incubation, average ± SD, Inactive = inhibition above 300 μM, read-out: IC50 BJ (normal cell line)) amounted to 36.1 ± 0.8 µM.

In the case of `CCCCCC(=O)N(Cc1ccc(OC)c(OC)c1)c1ccccc1` [Compound 21, N-(3,4-dimethoxyphenylmethyl)-N-(phenyl)-hexanamide], the melting point was in the range of 31.5 to 33.8 °C.

For `CCCCCC(=O)N(Cc1ccc(OC)c(OC)c1)c1ccc(B2OC(C)(C)C(C)(C)O2)cc1` [Compound 23, N-(3,4-dimethoxyphenylmethyl)-N-[4-(4,4,5,5-tetramethyl-1,3,2-dioxaborolan-2-yl)phenyl]-hexanamide], the melting point lay in the range of 51.5 to 53.5 °C. Moreover, the “antimicrobial activity against S. warneri (in words)” value in [1] was “inactive”. In data set [2], the “antimicrobial activity against P. vulgaris (in words)” value was “inactive”. The “cytotoxic activity against MCF7 (in words)” value in data set [3] is reported as “selective but low to moderate activity”. Also, the “IC50 MCF7 (cancer cell line)” value in [3] (72 h incubation, average ± SD, Inactive = inhibition above 300 μM) is “Inactive”. Also, the “antimicrobial activity against C. albicans (in words)” value in [4] is “inactive”. Also, in [5], the “cytotoxic activity against HTB-26 MDA-MB 231 (in words)” value is “selective but low to moderate activity” and the IC50 stood at 85.8 ± 7.1 µM. Besides, the “antimicrobial activity against P. aeruginosa (in words)” value in data set [6] was “inactive”. Further, the “antimicrobial activity against VRE (in words)” value in data set [7] is “inactive”. Moreover, the “antimicrobial activity against MRSA (in words)” value in data set [8] is “inactive”. Moreover, in data set [9], the “cytotoxic activity against HCT116 (in words)” value is “selective but low to moderate activity” and the IC50 was found to be 118 ± 4.9 µM. Besides, the “IC50 Vero (normal cell line)” value in data set [10] (setting [12]) was “Inactive”. In [11] (setting [12]), the “IC50 BJ (normal cell line)” value is on record as “Inactive”.
